Experimental data as given in ChEMBL document CHEMBL3885881, “DrugMatrix”.

Species: Rattus norvegicus
Assay: DrugMatrix - Regimen: Daily Repeat
Type: toxicity, organism-based, Sprague-Dawley
Set-up: regimen Daily Repeat, gender Male, age 6-8 weeks
Conditions: in vivo, iv, vehicle 100 % SALINE; for ABSOLUTE BASOPHIL / ABSOLUTE EOSINOPHIL / ABSOLUTE LYMPHOCYTE / ABSOLUTE MONOCYTE / ABSOLUTE SEGMENTED NEUTROPHIL / BASOPHIL / EOSINOPHIL / ERYTHROCYTE COUNT / HEMATOCRIT / HEMOGLOBIN / LEUKOCYTE COUNT / LYMPHOCYTE / MEAN CORPUSCULAR HEMOGLOBIN / MEAN CORPUSCULAR HEMOGLOBIN CONCENTRATION / MEAN CORPUSCULAR VOLUME / MONOCYTE / NEUTROPHIL / NUCLEATED RED BLOOD CELLS / PLATELET COUNT: tissue Blood; for ALANINE AMINOTRANSFERASE / ALBUMIN / ALKALINE PHOSPHATASE / ASPARTATE AMINOTRANSFERASE / BLOOD UREA NITROGEN / CARBON DIOXIDE / CHLORIDE / CHOLESTEROL / CREATINE PHOSPHOKINASE / CREATININE / GLUCOSE / LACTATE DEHYDROGENASE / LIPASE / PHOSPHORUS / POTASSIUM / SODIUM / TOTAL BILIRUBIN / TOTAL PROTEIN / URIC ACID: tissue Plasma
[1] = 0 mg/kg, 72 h, dose level Control, time 3 day
[2] = 0 mg/kg, 120 h, dose level Control, time 5 day
[3] = 2 mg/kg, 72 h, dose level Low, time 3 day

## Cc1ccc(N(CC2=NCCN2)c2cccc(O)c2)cc1 [PHENTOLAMINE]
[1]
  ABSOLUTE BASOPHIL: 0 CELLS/uL
  ABSOLUTE EOSINOPHIL: 53.17 CELLS/uL
  ABSOLUTE LYMPHOCYTE: 13731.5 CELLS/uL
  ABSOLUTE MONOCYTE: 186.17 CELLS/uL
  ABSOLUTE SEGMENTED NEUTROPHIL: 1645.83 CELLS/uL
  BASOPHIL: 0%
  EOSINOPHIL: 0.33%
  ERYTHROCYTE COUNT: 5.57 x10E6/uL
  HEMATOCRIT: 36.33%
  HEMOGLOBIN: 13.47 G/DL
  LEUKOCYTE COUNT: 15.62 x10E3/uL
  LYMPHOCYTE: 88.5%
  MEAN CORPUSCULAR HEMOGLOBIN: 24.22 pg
  MEAN CORPUSCULAR HEMOGLOBIN CONCENTRATION: 37.1 G/DL
  MEAN CORPUSCULAR VOLUME: 65.35 fL
  MONOCYTE: 1.17%
  NEUTROPHIL: 10%
  NUCLEATED RED BLOOD CELLS: 0.17 /100WBC
  PLATELET COUNT: 1295.5 x10E3/uL
  ALANINE AMINOTRANSFERASE: 46.83 u/L
  ALBUMIN: 4.37 G/DL
  ALKALINE PHOSPHATASE: 414.33 u/L
  ASPARTATE AMINOTRANSFERASE: 72.5 u/L
  BLOOD UREA NITROGEN: 17 mg/dL
  CARBON DIOXIDE: 23.5 mmol/L
  CHLORIDE: 102 MEQ/L
  CHOLESTEROL: 80.33 mg/dL
  CREATINE PHOSPHOKINASE: 207.83 u/L
  CREATININE: 0.22 mg/dL
  GLUCOSE: 172.17 mg/dL
  LACTATE DEHYDROGENASE: 131 u/L
  LIPASE: 10.33 u/L
  PHOSPHORUS: 11.75 mg/dL
  POTASSIUM: 6.83 MEQ/L
  SODIUM: 145.28 MEQ/L
  TOTAL BILIRUBIN: 0.22 mg/dL
  TOTAL PROTEIN: 6.22 G/DL
  URIC ACID: 1.9 mg/dL
[2]
  ABSOLUTE BASOPHIL: 0 CELLS/uL
  ABSOLUTE EOSINOPHIL: 33 CELLS/uL
  ABSOLUTE LYMPHOCYTE: 12184 CELLS/uL
  ABSOLUTE MONOCYTE: 108 CELLS/uL
  ABSOLUTE SEGMENTED NEUTROPHIL: 958.33 CELLS/uL
  BASOPHIL: 0%
  EOSINOPHIL: 0.17%
  ERYTHROCYTE COUNT: 5.9 x10E6/uL
  HEMATOCRIT: 36.58%
  HEMOGLOBIN: 13.33 G/DL
  LEUKOCYTE COUNT: 13.28 x10E3/uL
  LYMPHOCYTE: 91.17%
  MEAN CORPUSCULAR HEMOGLOBIN: 22.67 pg
  MEAN CORPUSCULAR HEMOGLOBIN CONCENTRATION: 36.47 G/DL
  MEAN CORPUSCULAR VOLUME: 62.13 fL
  MONOCYTE: 0.83%
  NEUTROPHIL: 7.83%
  NUCLEATED RED BLOOD CELLS: 0.33 /100WBC
  PLATELET COUNT: 1475.33 x10E3/uL
  ALANINE AMINOTRANSFERASE: 47 u/L
  ALBUMIN: 4.35 G/DL
  ALKALINE PHOSPHATASE: 368.33 u/L
  ASPARTATE AMINOTRANSFERASE: 90.83 u/L
  BLOOD UREA NITROGEN: 15.5 mg/dL
  CARBON DIOXIDE: 26.5 mmol/L
  CHLORIDE: 103.33 MEQ/L
  CHOLESTEROL: 71.83 mg/dL
  CREATINE PHOSPHOKINASE: 585.33 u/L
  CREATININE: 0.19 mg/dL
  GLUCOSE: 171.17 mg/dL
  LACTATE DEHYDROGENASE: 388.83 u/L
  LIPASE: 10.83 u/L
  PHOSPHORUS: 11.75 mg/dL
  POTASSIUM: 6.21 MEQ/L
  SODIUM: 143.7 MEQ/L
  TOTAL BILIRUBIN: 0.17 mg/dL
  TOTAL PROTEIN: 6.17 G/DL
  URIC ACID: 1.98 mg/dL
[3]
  ABSOLUTE BASOPHIL: 0 CELLS/uL
  ABSOLUTE EOSINOPHIL: 44.67 CELLS/uL
  ABSOLUTE LYMPHOCYTE: 11097.67 CELLS/uL
  ABSOLUTE MONOCYTE: 122.33 CELLS/uL
  ABSOLUTE SEGMENTED NEUTROPHIL: 968.67 CELLS/uL
  BASOPHIL: 0%
  EOSINOPHIL: 0.33%
  ERYTHROCYTE COUNT: 5.48 x10E6/uL
  HEMATOCRIT: 35.63%
  HEMOGLOBIN: 13.4 G/DL
  LEUKOCYTE COUNT: 12.23 x10E3/uL
  LYMPHOCYTE: 90.67%
  MEAN CORPUSCULAR HEMOGLOBIN: 24.5 pg
  MEAN CORPUSCULAR HEMOGLOBIN CONCENTRATION: 37.6 G/DL
  MEAN CORPUSCULAR VOLUME: 65.03 fL
  MONOCYTE: 1%
  NEUTROPHIL: 8%
  NUCLEATED RED BLOOD CELLS: 0 /100WBC
  PLATELET COUNT: 1379.67 x10E3/uL
  ALANINE AMINOTRANSFERASE: 31.67 u/L
  ALBUMIN: 4.47 G/DL
  ALKALINE PHOSPHATASE: 406 u/L
  ASPARTATE AMINOTRANSFERASE: 74 u/L
  BLOOD UREA NITROGEN: 18.67 mg/dL
  CARBON DIOXIDE: 19.67 mmol/L
  CHLORIDE: 104.67 MEQ/L
  CHOLESTEROL: 76.67 mg/dL
  CREATINE PHOSPHOKINASE: 368.67 u/L
  CREATININE: 0.22 mg/dL
  GLUCOSE: 166 mg/dL
  LACTATE DEHYDROGENASE: 137.33 u/L
  LIPASE: 10.33 u/L
  PHOSPHORUS: 12.63 mg/dL
  POTASSIUM: 6.72 MEQ/L
  SODIUM: 145.53 MEQ/L
  TOTAL BILIRUBIN: 0.13 mg/dL
  TOTAL PROTEIN: 6.27 G/DL
